The source made the active and inactive calls. No rule for the calls is given here.

For the test, the system named is luminescent cytotoxicity (cell viability) counter-screen. The experiment in a line: cytotoxicity of Gli-SUFU antagonist hits, dose response, cytotoxicity control for Gli-SUFU antagonist project, cell-based, luminescence, uHTS hits (AID 651569).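 Also: compound exposure lasted overnight before the viability readout.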
As for `CCOC(=O)C1CCCN(S(=O)(=O)c2ccc(S(=O)(=O)N(CC)CC)cc2)C1` (stereo not given), the IC50 (in general, the concentration needed to halve the response being measured) is > 20 µM (inactive).

In the case of `CCOC(=O)c1c(NC(=O)COc2ncnc3ccccc23)sc(C(C)=O)c1C`, the IC50 is > 20 µM (inactive).

For the molecule `NC(=O)c1c(-c2ccc(Cl)cc2Cl)csc1NC(=O)Cc1ccccc1`, the IC50 was 16.8 µM.

For `C(#Cc1ccccc1)C[N+]1(CC#Cc2ccccc2)CCCC1`, the IC50 is > 20 µM (inactive).

On to `N=c1c(-c2nc3ccccc3[nH]2)cc(C(=O)c2ccco2)nn1-c1ccccc1`, for which the IC50 was > 20 µM (inactive).

In the case of `CCOc1ccc(-n2c(-c3ccc(Cl)cc3)c[n+]3c2SCC3)cc1`, the IC50 was 19 µM.

For `CC1=CC(C)C2(COC(c3ccc[n+](C)c3)OC2)C(C)C1` (stereo not given), the IC50 is > 20 µM (inactive).

Take `O=C(COC(=O)c1ccc2[nH]c3c(c2c1)CCCC3)Nc1ccccc1Cl`: the IC50 is > 20 µM (inactive).

Take `COc1ccc(-c2noc(CCCCC(=O)N3CCN(c4cc(C)ccc4C)CC3)n2)cc1`: the IC50 is > 20 µM (inactive).

Consider `O=C(c1cc2nc(-c3ccc(F)cc3)cc(C(F)(F)F)n2n1)N1CCCCC1c1cccnc1` (stereo not given), for which the IC50 is > 20 µM (inactive).

For the molecule `COc1ccc(OC)c(Cc2cnc3nc(N)nc(N)c3c2C)c1`, the IC50 is > 20 µM (inactive).

Regarding `Cc1cc(=O)[nH]c(SCC(=O)/C=C2\N(C)c3ccccc3C2(C)C)n1`, the IC50 is > 20 µM (inactive).

`O=C(c1ccc(C(F)(F)F)cc1)C1CCCN(Cc2ccncc2)C1` (stereo not given): the IC50 was 18.2 µM.

In the case of `Clc1ccc(-c2c[n+](Cc3ccc(Cl)cc3Cl)c3n2CCCCC3)cc1`, the half-maximal inhibitory concentration (IC50) is 9.17 µM.

Take `CC(=O)c1c(C)[nH]c(C(=O)OCC(=O)Nc2cccc(S(=O)(=O)N3CCCC3)c2)c1C`: the IC50 was > 20 µM (inactive).

In the case of `CC(=O)c1c(C)[nH]c(C(=O)OCC(=O)Nc2ccc(C)cc2[N+](=O)[O-])c1C`, the IC50 is 18.9 µM.

As for `Cc1cc(C)nc(/N=C(\N)Nc2ccccc2-c2ccccc2)n1`, the IC50 is 18.4 µM.

On to `O=C(Nc1ccncc1)c1ccc(-c2ccccc2)cc1`, for which the IC50 was > 20 µM (inactive).

As for `O=C(NC1CCCC1)c1cc(COc2ccc3ncccc3c2)on1`, the IC50 was > 20 µM (inactive).

On to `Cc1nc2ccccc2n1Cc1ccc(Br)cc1`, for which the IC50 is > 20 µM (inactive).

On to `CC(C)C(=O)N1CCN(c2ccccc2NC(=O)COc2ccccc2)CC1`, for which the IC50 was > 20 µM (inactive).

For the molecule `Cc1ccc(NC(=O)/C=C/c2ccco2)cc1S(=O)(=O)N1CCCCCC1`, the half-maximal inhibitory concentration (IC50) is 6.1 µM.

As for `CCCCOc1ccc(N2C(N)=NC(N)=NC23CCCCC3)cc1`, the IC50 is > 20 µM (inactive).

For the molecule `Cc1cc(C)c(C(N)=O)c(SCC(=O)c2cc(C)n(-c3cc(C)on3)c2C)n1`, the IC50 is > 20 µM (inactive).

Regarding `Cc1cc(N/N=C/c2ccc(O)cc2O)nc(-n2nc(C)cc2C)n1`, the IC50 was > 20 µM (inactive).

For the molecule `CC(NC(=O)c1cc2c(=O)n3ccccc3nc2n(CC2CCCO2)c1=N)c1ccccc1` (stereo not given), the IC50 was > 20 µM (inactive).

Take `CC[N+](CC)(CC#Cc1ccccc1)CC#Cc1ccccc1`: the IC50 is > 20 µM (inactive).

For the molecule `C[N+]1=C(/C=C/Nc2ccccc2)C(C)(C)c2ccccc21`, the IC50 is > 20 µM (inactive).

As to `O=S(=O)(c1ccc2c(c1)nc(COc1ccc(Cl)cc1)n2CC1CCCO1)N1CCOCC1` (stereo not given), the IC50 is > 20 µM (inactive).

As to `O=C(N[C@@H]1C/C=C\C[C@H](CC(=O)N(CCO)Cc2ccccc2)C(=O)N[C@@H](Cc2c[nH]c3ccccc23)COC1=O)OCC1c2ccccc2-c2ccccc21`, the IC50 is > 20 µM (inactive).

Consider `C=C(C)CSc1nc2sc3c(c2c(=O)n1C1CCCCC1)CCN(C)C3`, for which the IC50 is > 20 µM (inactive).

With `CCc1c(C)nc2ncnn2c1N1CCN(S(=O)(=O)c2ccc(OC)cc2)CC1`, the IC50 is > 20 µM (inactive).

Regarding `O=C(Cc1ccc(Cl)cc1Cl)Nc1ccncc1`, the IC50 was > 20 µM (inactive).

Regarding `COc1ccc(Cn2c(-c3ccc(Cl)cc3)c[n+]3ccccc23)cc1`, the IC50 is > 20 µM (inactive).

Turning to `CC(=O)c1ccc(N2CCN(c3ccc(C(F)(F)F)cn3)CC2)cc1`, the IC50 was > 20 µM (inactive).

For `O=C(Cc1csc(Nc2nc(=S)[nH]c3ccccc23)n1)NCCCN1CCN(c2ccccc2F)CC1`, the IC50 was > 20 µM (inactive).

Take `CC(C)(C)OC(=O)NCCCCCc1cn(CC(=O)NCCCCCCCCCCC(=O)N2CCN(C(=O)OC(C)(C)C)CC2)nn1`: the IC50 was > 20 µM (inactive).

With `Cc1nc2ncccn2c1-c1csc(Nc2ccc(O)cc2)n1`, the IC50 was > 20 µM (inactive).

As for `CCCc1c(CC)c(=N)c2ccccc2n1C`, the IC50 was > 20 µM (inactive).

As to `CCOc1ccc(NC(=S)NNc2ccnc3cc(Cl)ccc23)cc1`, the IC50 was > 20 µM (inactive).

On to `Cc1nn(Cc2noc(C(=O)NC3CCC(C)CC3)n2)c(C)c1Br` (stereo not given), for which the IC50 was > 20 µM (inactive).

Turning to `CCN(CC(=O)Nc1c(F)cccc1F)C(=O)c1cc(S(=O)(=O)N(CC)CC)ccc1N1CCCCC1`, the IC50 is 9.1 µM.

With `COc1ccccc1CCNC(=O)c1cc(-c2ccncc2)nc2ccc(Br)cc12`, the IC50 is > 20 µM (inactive).

Regarding `CCCCc1ccc(NC(=O)C(=O)NCCN2CCN(Cc3ccc([N+](=O)[O-])cc3)CC2)cc1`, the IC50 is > 20 µM (inactive).

Turning to `COc1cccc2nc3c(C(=O)NCCN(C)C)cccc3cc12`, the IC50 is 10.6 µM.

Turning to `C=CCOC(=O)c1[nH]c2c(c1C)C(=O)CC(c1cc(OC)c(OC)c(OC)c1)C2` (stereo not given), the IC50 is > 20 µM (inactive).

For the molecule `c1ccc(-c2cn(-c3ccccc3)c3[n+]2CCS3)cc1`, the IC50 is > 20 µM (inactive).

On to `CCN(CC)C(=O)c1ccc(S(=O)(=O)N2CCC(c3nc4ccccc4s3)CC2)cc1`, for which the IC50 was > 20 µM (inactive).

As to `CCN(CC)S(=O)(=O)c1ccc(C)c(NC(=S)N2CCN(Cc3ccc4c(c3)OCO4)CC2)c1`, the IC50 was > 20 µM (inactive).

Consider `CC(C)Cn1c(N)c(C(=O)COC(=O)C2Cc3ccccc3CN2S(C)(=O)=O)c(=O)n(C)c1=O` (stereo not given), for which the IC50 is > 20 µM (inactive).

For the molecule `Cc1nc2ccccc2n1CC(=O)NC(C)C1CC2CCC1C2` (stereo not given), the IC50 was > 20 µM (inactive).

As to `Cc1cc(C)nc(SCC(=O)Nc2ccc(N3CCOCC3)c(Cl)c2)n1`, the IC50 was > 20 µM (inactive).

With `O=C(C[C@H]1C/C=C\C[C@H](NC(=O)OCC2c3ccccc3-c3ccccc32)C(=O)OC[C@@H]2CCCN2C1=O)N[C@H](CO)Cc1ccccc1`, the IC50 is > 20 µM (inactive).

`Cc1cc(NC(=O)CSc2nc3c([nH]c4ccccc43)c(=O)n2-c2ccccc2F)no1`: the IC50 is > 20 µM (inactive).

Turning to `COc1cc2c(c(OC)c1OC)-c1ccc(N(C)CC(OC)OC)c(=O)cc1[C@@H](NC(C)=O)CC2`, the IC50 is 10.6 µM.

In the case of `COc1ccc(-n2cc(-c3ccc(OC(F)F)cc3)[n+]3c2CCCCC3)cc1`, the IC50 was > 20 µM (inactive).

On to `COc1ccc(C(C(=O)NC2CCCCC2)N(C(=O)CCl)c2ccc(Cl)cc2)cc1` (stereo not given), for which the concentration for half-maximal inhibition (IC50) is 4.86 µM.

In the case of `Cc1sc2ncnc(NCC3COc4ccccc4O3)c2c1C` (stereo not given), the IC50 was > 20 µM (inactive).

Regarding `NC(=O)CC(NC(=O)c1ccccc1)c1ccc(N2CCCCCC2)c([N+](=O)[O-])c1` (stereo not given), the IC50 was > 20 µM (inactive).

For `CN(Cc1ccc(OCC(O)CN2CCCCC2)cc1)Cc1ccnc2ccccc12` (stereo not given), the IC50 was > 20 µM (inactive).

(Values after PubChem BioAssay AID651569 (Sanford-Burnham Center for Chemical Genomics, 2012).)
